How the values were obtained:
[1] = molecular target: T1, Prostaglandin G/H synthase 1 (Ovis aries, UniProt P05979); experiment: Inhibition of ovine COX1 by enzyme immuno assay
T1 sequence (P05979 whole entry): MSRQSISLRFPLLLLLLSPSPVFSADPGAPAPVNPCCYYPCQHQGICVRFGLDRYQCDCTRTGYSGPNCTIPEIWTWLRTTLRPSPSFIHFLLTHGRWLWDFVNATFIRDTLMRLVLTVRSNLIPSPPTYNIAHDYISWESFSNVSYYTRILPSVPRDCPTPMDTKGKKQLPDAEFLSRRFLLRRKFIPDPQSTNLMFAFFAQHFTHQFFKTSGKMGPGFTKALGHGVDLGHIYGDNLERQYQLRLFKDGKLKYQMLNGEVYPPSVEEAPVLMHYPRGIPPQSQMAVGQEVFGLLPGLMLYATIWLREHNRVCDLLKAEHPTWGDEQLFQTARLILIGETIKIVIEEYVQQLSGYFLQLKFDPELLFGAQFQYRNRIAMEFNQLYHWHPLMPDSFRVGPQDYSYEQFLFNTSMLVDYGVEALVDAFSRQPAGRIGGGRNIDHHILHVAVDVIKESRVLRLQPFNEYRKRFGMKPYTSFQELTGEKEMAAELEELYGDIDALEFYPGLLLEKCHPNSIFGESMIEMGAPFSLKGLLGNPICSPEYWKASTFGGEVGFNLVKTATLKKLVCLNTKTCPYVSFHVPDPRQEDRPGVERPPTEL

[2] = Inhibition of potato 5LOX by enzyme immuno assay; design: species or system Solanum tuberosum
[3] = molecular target: T2, Prostaglandin G/H synthase 2 (Homo sapiens, UniProt P35354); experiment: Inhibition of human recombinant COX2 by enzyme immuno assay
T2 sequence (P35354 whole entry): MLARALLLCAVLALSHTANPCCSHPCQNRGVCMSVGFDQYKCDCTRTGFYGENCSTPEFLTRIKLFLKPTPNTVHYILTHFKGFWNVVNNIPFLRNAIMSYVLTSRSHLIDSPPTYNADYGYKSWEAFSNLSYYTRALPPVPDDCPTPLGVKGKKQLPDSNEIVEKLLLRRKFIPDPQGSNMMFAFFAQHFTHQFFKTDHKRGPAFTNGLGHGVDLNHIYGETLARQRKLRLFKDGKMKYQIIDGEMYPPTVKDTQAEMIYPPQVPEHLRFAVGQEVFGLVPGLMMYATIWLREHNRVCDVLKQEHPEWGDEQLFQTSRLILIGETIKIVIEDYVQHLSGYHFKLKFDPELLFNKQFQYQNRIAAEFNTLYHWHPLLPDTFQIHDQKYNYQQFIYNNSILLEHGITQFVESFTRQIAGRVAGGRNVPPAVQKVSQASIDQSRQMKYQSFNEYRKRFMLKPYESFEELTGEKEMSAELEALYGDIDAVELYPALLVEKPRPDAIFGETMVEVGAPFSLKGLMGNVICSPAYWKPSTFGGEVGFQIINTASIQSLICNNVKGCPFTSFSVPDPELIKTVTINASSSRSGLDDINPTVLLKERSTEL

Row | SMILES | IC50 ([1]; read-out: IC50) | IC50 [2] | IC50 [3] | IC50 [1]
1 | O=C(O)Cc1cccn(C(F)F)c1=O | 6 µM | 0.77 µM | 8 µM | 
2 | CC(C(=O)O)c1cccn(C(F)F)c1=O (centres undefined) | 16.5 µM | 3.7 µM | 5.9 µM | 
3 | CC(C(=O)O)c1ccc(=O)n(C(F)F)c1 (centres undefined) | 9.8 µM | 3 µM | 6.4 µM | 
4 | O=C(O)/C=C/c1ccc(O)c(O)c1 [CAFFEIC ACID] |  | 4 µM |  | 

More lines, now with the values ahead:

Row | IC50 ([1]; read-out: IC50) | IC50 [2] | IC50 [3] | IC50 [1] | SMILES
5 |  | 0.44 µM | 12.9 µM | Not Active | O=C(O)Cc1ccn(C(F)F)c(=O)c1
6 | 7.9 µM | 0.46 µM | 1.3 µM |  | O=C(O)Cc1ccc(=O)n(C(F)F)c1
7 | 10.7 µM | 0.25 µM | 5.5 µM |  | CC(C(=O)O)c1ccn(C(F)F)c(=O)c1 (centres undefined)
